Test results published in ChEMBL document CHEMBL6103551 (Bioorg Med Chem Lett, 2025).

Details: mouse, microsomes, 1 h
Description: Metabolic stability in mouse liver microsomes assessed as reduction in NADPH incubated for 60 mins by fluorescence based assay relative to control

## CCOC(=O)N1CCC(NC(=S)Nc2cc(Cl)cc(Cl)c2)CC1
  Stability: Stable
